TGI data for 3 compounds are collected here from PubChem BioAssay (NCI).

Among the test systems are DU-145 prostate; SK-MEL-28 melanoma; NCI-H460 lung; MOLT-4 leukemia; HCC-2998 colon; HT29 colon; CCRF-CEM leukemia; M14 melanoma; KM12 colon; LOX IMVI melanoma; OVCAR-3 ovarian; COLO 205 colon; HCT-15 colon; NCI-H522 lung; SNB-19 CNS; IGROV1 ovarian; A498 renal; U251 CNS; NCI-H23 lung; T-47D breast.
What all share (assay): DTP human tumour cell line panel, 48 h

The structures appear in SMILES notation.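 Tested at 5 concentrations; 48 h exposure; 96-well plates; endpoints linearly interpolated, else capped at highest concentration. The concentration for full growth arrest is given as TGI.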

One may read the TGI as the concentration at which net growth stops. A high value points to lower sensitivity of the cells. As to `CC(=O)c1c2c(cc3c1CC1(Cc4cc5c(cc4C1=O)CCC5)C3)CCC2` (stereo not given), the total growth inhibition concentration (TGI) in the test with DU-145 prostate, in the test on SK-MEL-28 melanoma, in the test with NCI-H460 lung, in the test with MOLT-4 leukemia, in the test on HCC-2998 colon and in the test on HT29 colon was > 100 µM throughout. Further, the concentration for total growth inhibition (TGI) in the test on CCRF-CEM leukemia was > 73.7 µM; in the test with M14 melanoma, > 100 µM; with KM12 colon, > 100 µM; in the test with LOX IMVI melanoma it was > 100 µM; in the test with OVCAR-3 ovarian, > 100 µM; in the test on COLO 205 colon it was > 100 µM. The TGI in the test with HCT-15 colon, in the test on NCI-H522 lung, in the test on SNB-19 CNS, in the test with IGROV1 ovarian, in the test with A498 renal and in the test on U251 CNS was > 100 µM throughout. The total growth inhibition concentration (TGI) in the test on NCI-H23 lung and with T-47D breast was > 100 µM in each case.

In the case of `Oc1ccc(-c2c3ccccc3c(-c3ccc(OCCBr)cc3)c3ccccc23)cc1`, the total growth inhibition concentration (TGI) is > 100 µM with DU-145 prostate; 51 µM in the test on SK-MEL-28 melanoma; > 100 µM in the test on NCI-H460 lung; > 100 µM with MOLT-4 leukemia; > 100 µM in the test with HCC-2998 colon; 43.2 µM with HT29 colon. Further, the concentration for total growth inhibition (TGI) is > 100 µM in the test with CCRF-CEM leukemia; 37 µM in the test with M14 melanoma; 83.6 µM with KM12 colon; 38.9 µM in the test on LOX IMVI melanoma; 33.7 µM with OVCAR-3 ovarian; 96.9 µM in the test on COLO 205 colon. Besides, the TGI in the test with HCT-15 colon was 77.4 µM; in the test on NCI-H522 lung it was 74 µM; in the test on SNB-19 CNS it was 84.3 µM; with IGROV1 ovarian, 44.2 µM; in the test on A498 renal, 40 µM; with U251 CNS, 53.3 µM. For the same compound, the results for the total growth inhibition concentration (TGI) with NCI-H23 lung and in the test with T-47D breast were 34.9 µM and > 100 µM, respectively.

Consider `C=C[C@@]1(C)CC2CC[C@]3(C)C(C)=CC(=O)CC3[C@]2(C)CC1O` (stereo not given in full), for which the TGI in the test on DU-145 prostate, in the test with SK-MEL-28 melanoma, with NCI-H460 lung, in the test on MOLT-4 leukemia, with HCC-2998 colon and in the test on HT29 colon was > 100 µM in each case. For the same compound, the TGI in the test with CCRF-CEM leukemia, in the test on M14 melanoma, in the test on KM12 colon, in the test with LOX IMVI melanoma, in the test on OVCAR-3 ovarian and with COLO 205 colon was > 100 µM each time. Further, the concentration for total growth inhibition (TGI) with HCT-15 colon was > 100 µM; in the test with NCI-H522 lung, 74.4 µM; with SNB-19 CNS, > 100 µM; in the test on IGROV1 ovarian, > 100 µM; in the test with A498 renal, > 100 µM; in the test on U251 CNS, > 100 µM. Besides, the TGI in the test on NCI-H23 lung and in the test on T-47D breast was > 100 µM each time.
